The text below walks through data of ChEMBL document CHEMBL2331452, “3D-QSAR studies of 1,2-diaryl-1H-benzimidazole derivatives as JNK3 inhibitors with protective effects in neuronal cells” (Bioorg Med Chem Lett, 2013).

The target of the test is Mitogen-activated protein kinase 10 (Homo sapiens, UniProt P53779). The experiment in a line: Binding affinity to JNK3 (unknown origin) by surface plasmon resonance analysis in presence of ATP.

SMILES strings stand for the structures.

Mitogen-activated protein kinase 10, sequence (P53779 whole entry): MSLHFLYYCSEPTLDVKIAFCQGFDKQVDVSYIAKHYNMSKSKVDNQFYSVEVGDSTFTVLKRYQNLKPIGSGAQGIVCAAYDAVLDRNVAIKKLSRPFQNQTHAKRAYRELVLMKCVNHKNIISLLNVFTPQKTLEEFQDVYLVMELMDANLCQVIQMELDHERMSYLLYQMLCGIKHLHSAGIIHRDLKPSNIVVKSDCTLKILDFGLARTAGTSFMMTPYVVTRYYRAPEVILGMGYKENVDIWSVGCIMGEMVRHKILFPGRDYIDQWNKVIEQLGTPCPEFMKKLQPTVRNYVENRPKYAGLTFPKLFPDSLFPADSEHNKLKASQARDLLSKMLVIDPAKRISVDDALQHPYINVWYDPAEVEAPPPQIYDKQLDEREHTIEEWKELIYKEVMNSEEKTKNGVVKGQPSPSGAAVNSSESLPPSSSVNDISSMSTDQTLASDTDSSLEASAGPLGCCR

As to `COc1ccc2c(c1)nc(-c1ccc3ccccc3c1)n2-c1ccnc(NC2CCCCC2)n1`, the Kd (read-out: Kd) is 0.743 µM and the Kd (read-out: pKd (converted)) was 0.741 µM.
Taken in the same sequence, the figures for `O=C(C1CC1)N1CCC[C@@H](Nc2cc(-n3c(-c4ccc5ccccc5c4)nc4ccccc43)ccn2)C1` were 10.7 µM and 10.7 µM.
The corresponding values for `COc1ccc2nc(-c3ccc4ccccc4c3)n(-c3ccnc(N[C@@H]4CCCN(C(=O)C5CC5)C4)n3)c2c1` are 1.17 µM and 1.17 µM.
The corresponding values for `COc1ccc2c(c1)nc(-c1ccc3ccccc3c1)n2-c1ccnc(NC2CCCCC2)c1` are 176 µM and 178 µM.
`Oc1ccc2nc(-c3ccc4ccccc4c3)n(-c3ccnc(NC4CCCCC4)n3)c2c1`: the Kd (read-out: Kd) was 31.7 µM and the Kd (read-out: pKd (converted)) was 31.6 µM.
The corresponding values for `Oc1ccc2c(c1)nc(-c1ccc3ccccc3c1)n2-c1ccnc(NC2CCCCC2)c1` are 24.5 µM and 24.5 µM.
Taken in the same sequence, the figures for `O=C(C1CC1)N1CCC[C@@H](Nc2cc(-n3c(-c4cccc(O)c4)nc4ccccc43)ccn2)C1` were 2.64 µM and 2.63 µM.
As to `Oc1ccc2c(c1)nc(-c1ccc3ccccc3c1)n2-c1ccnc(N[C@@H]2CCCNC2)c1`, the Kd was 6.05 µM (read-out: Kd) and 6.03 µM (read-out: pKd (converted)).
On to `c1ccc2cc(-c3nc4ccccc4n3-c3ccnc(NC4CCOCC4)n3)ccc2c1`, for which the Kd by setting is: (read-out: Kd) 2.33 µM; (read-out: pKd (converted)) 2.34 µM.
Taken in the same sequence, the figures for `Oc1ccc2c(c1)nc(-c1ccc3ccccc3c1)n2-c1ccnc(NC2CCCCC2)n1` were 1.89 µM and 1.91 µM.
The corresponding values for `Oc1ccc2c(c1)nc(-c1ccc3ccccc3c1)n2-c1ccnc(NC2CCOCC2)c1` are 10 µM and 10 µM.
Taken in the same sequence, the figures for `Clc1ccc(-c2nc3ccccc3n2-c2ccnc(NC3CCOCC3)n2)cc1Cl` were 21.8 µM and 21.9 µM.
In the case of `COc1ccc2c(c1)nc(-c1ccc(Cl)c(Cl)c1)n2-c1ccnc(NC2CCCCC2)c1`, the Kd was 18.1 µM (read-out: Kd) and 18.2 µM (read-out: pKd (converted)).
Regarding `Oc1ccc2nc(-c3ccc4ccccc4c3)n(-c3ccnc(NC4CCOCC4)n3)c2c1`, the Kd by setting is: (read-out: Kd) 6 µM; (read-out: pKd (converted)) 6.03 µM.
The corresponding values for `c1ccc2cc(-c3nc4ccccc4n3-c3ccnc(NC4CCCCC4)c3)ccc2c1` are 5.26 µM and 5.25 µM.
Taken in the same sequence, the figures for `c1ccc2cc(-c3nc4ccccc4n3-c3ccnc(N[C@@H]4CCCNC4)n3)ccc2c1` were 2.98 µM and 2.95 µM.
Taken in the same sequence, the figures for `C[C@H](O)CNc1cc(-n2c(-c3cccc(O)c3)nc3ccccc32)ccn1` were 19.1 µM and 19.1 µM.
Take `c1ccc2cc(-c3nc4ccccc4n3-c3ccnc(NC4CCCCC4)n3)ccc2c1`: the Kd reads like this: (read-out: Kd) 1.75 µM; (read-out: pKd (converted)) 1.74 µM.
On to `COc1ccc2nc(-c3ccc4ccccc4c3)n(-c3ccnc(NC4CCCCC4)n3)c2c1`, for which the Kd runs as follows: (read-out: Kd) 1.77 µM; (read-out: pKd (converted)) 1.74 µM.
Taken in the same sequence, the figures for `O=C(C1CC1)N1CCC[C@@H](Nc2nccc(-n3c(-c4ccc(Cl)c(Cl)c4)nc4ccccc43)n2)C1` were 7.69 µM and 7.76 µM.
Taken in the same sequence, the figures for `O=C(C1CC1)N1CCC[C@@H](Nc2cc(-n3c(-c4ccc5ccccc5c4)nc4cc(O)ccc43)ccn2)C1` were 27.7 µM and 27.5 µM.
On to `Oc1ccc2c(c1)nc(-c1ccc(Cl)c(Cl)c1)n2-c1ccnc(NC2CCCCC2)c1`, for which the Kd (read-out: Kd) is 13.8 µM and the Kd (read-out: pKd (converted)) was 13.8 µM.
`c1ccc2cc(-c3nc4ccccc4n3-c3ccnc(NC4CCOCC4)c3)ccc2c1`: the Kd (read-out: Kd) is 4.65 µM and the Kd (read-out: pKd (converted)) is 4.68 µM.
Taken in the same sequence, the figures for `O=C(C1CC1)N1CCC[C@@H](Nc2nccc(-n3c(-c4ccc5ccccc5c4)nc4cc(O)ccc43)n2)C1` were 2.65 µM and 2.63 µM.
The corresponding values for `COc1ccc2c(c1)nc(-c1ccc3ccccc3c1)n2-c1ccnc(N[C@@H]2CCCN(C(=O)C3CC3)C2)n1` are 2.91 µM and 2.88 µM.
On to `O=C(C1CC1)N1CCC[C@@H](Nc2nccc(-n3c(-c4ccc5ccccc5c4)nc4ccccc43)n2)C1`, for which the Kd by setting is: (read-out: Kd) 1.93 µM; (read-out: pKd (converted)) 1.95 µM.
Taken in the same sequence, the figures for `C[C@H](O)CNc1cc(-n2c(-c3ccc4ccccc4c3)nc3ccccc32)ccn1` were 12.7 µM and 12.6 µM.
The corresponding values for `Oc1ccc2c(c1)nc(-c1ccc3ccccc3c1)n2-c1ccnc(NC2CCOCC2)n1` are 1.66 µM and 1.66 µM.
